Laboratory results reported in US9388147B2 (Receptos, Inc., priority 2009, dated 2016).
Counter-ions that a name gives are not always drawn.

Tests used:
S1P4 = target: T1, S1P4 (Homo sapiens, UniProt O95977); assay: Specificity over other S1P receptors: S1P4-bla TANGO U2OS assay; format: cell-based; conditions: read-out: S1P4 agonist value (EC50)
T1 construct: Tango fusion (own knowledge: protease cleavage site plus GAL4-VP16 transcription factor at the receptor's C-terminus); host or cells: U2OS (Tango -bla)
T1 sequence (O95977 1-384): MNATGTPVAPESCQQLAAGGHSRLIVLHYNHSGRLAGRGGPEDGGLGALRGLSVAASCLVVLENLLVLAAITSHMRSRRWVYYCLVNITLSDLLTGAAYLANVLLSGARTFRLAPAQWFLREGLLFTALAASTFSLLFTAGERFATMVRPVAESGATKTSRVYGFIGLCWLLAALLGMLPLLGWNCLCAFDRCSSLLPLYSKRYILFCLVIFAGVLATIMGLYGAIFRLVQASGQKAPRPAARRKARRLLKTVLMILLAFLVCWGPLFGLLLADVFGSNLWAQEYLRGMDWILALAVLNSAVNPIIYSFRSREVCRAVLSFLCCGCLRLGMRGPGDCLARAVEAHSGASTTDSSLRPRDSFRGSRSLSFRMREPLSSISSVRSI
Method: (§1) Cells were seeded into 384-well black wall/clear bottom plates at 10^4 cells/well/19.5 μl assay media (DMEM-phenol free, 0.5% charcoal/dextran stripped serum, 2 mM glutamine, 0.1 mM NEAA, 1 mM Na-Pyruvate, 25 mM Hepes) and incubated for 18 hrs at 37° C. in 5% CO2. Dose response curves (10-point) were generated in 10 mM Hepes, 0.1% Pluronic F127, in the presence of Forskolin. Cells were treated with 0.5 μl compound in the presence of 2 μM Forskolin for 4 hrs at 37° C. The FRET-based β-lactamase fluorescent substrate (LiveBLAzer™-FRET B/G Loading Kit CC4-AM; Invitrogen) was prepared according to manufacturer's directions, and incubated with cells for 2 hrs at room temperature. Plates were read at Ex:410/Em:458 and Ex:410/Em:522, and the response ratio determined. Data was analyzed by non-linear regression to determine the EC50 for inhibition of Forskolin induced cAMP.
(§2) To assess compound specificity on other S1P receptors the following cell lines were used: S1P2 CRE-bla CHOK1, S1P3-Gα15 NFAT-bla HEK293T (Invitrogen), S1P4-bla TANGO U2OS (Invitrogen), S1P5-bla TANGO U2OS (Invitrogen). The same assay set up for S1P1 was used but without Forskolin. S1P4 and S1P5 assays were performed in FreeStyle Expression medium (Invitrogen). S1P5 cells were incubated for 48 hrs in prior to treatment with compound.

[1] = Determination of absolute oral bioavailability in rats; format: in vivo, Sprague-Dawley rat; conditions: non-fasted female Sprague-Dawley rats, oral solution 0.3 mg/kg (85), 2 mg/kg (49, 50), iv 0.3 mg/kg (49, 50), 0.8 mg/kg racemic 85/86
Method: All pharmacokinetic studies were conducted in non-fasted female Sprague-Dawely rats (Simonsen Laboratories or Harlan Laboratories). Rats were housed in an ALAAC accredited facility and the research was approved by the facilities Institutional Animal Care and Use Committee (IACUC). The animals were acclimated to the laboratory for at least 48 h prior to initiation of experiments.
Compounds were formulated in 5% DMSO/5% Tween20 and 90% purified water (intravenous infusion) or 5% DMSO/5% Tween20 and 90% 0.1N HCL (oral gavage). The concentration of the dosing solutions was verified by HPLC-UV. For intravenous dosing, compounds were administered by an infusion pump into the jugular vein over one minute to manually restrained animals (n=4 rats/compound). The intravenous doses were 0.8 for a 1:1 mixture (racemic) of 85 and 86, and 0.3 and 0.3 mg/kg for compounds 49 and 50, respectively. Oral dosing was by gavage using a standard stainless steel gavage needle (n=2-4 rats/compound). The oral solution doses were 0.3, 2 and 2 mg/kg for compounds 85, 49 and 50, respectively. For both routes of administration, blood was collected at eight time-points after dosing with the final sample drawn 24 h post dose. Aliquots of the blood samples were transferred to polypropylene 96-well plate and frozen at −20° C. until analysis. […]
Concentrations in the rat pharmacokinetic samples were determined using a standardized HPLC-LC/MS/MS method relative to the eight point standard curve. […] Collision energies used to generate daughter ions ranged between 29 and 39 V. Peak area ratios obtained from MRM of the mass transitions specific for each compound were used for quantification. The limit of quantification of the method was typically 5 nM. Data were collected and analyzed using Analyst software version 1.4.2.
Blood concentration versus time data were analyzed using non-compartmental methods (WinNonlin version 5.2; model 200 for oral dosing and model 202 for intravenous infusion). Absolute oral bioavailability (%) was calculated using the following expression: (Oral AUC×IV Dose)/(IV AUC×Oral Dose)×100. […]

S1P2 = target: T2, S1P2 (Homo sapiens, UniProt O95136); assay: Specificity over other S1P receptors: S1P2 CRE-bla CHOK1 reporter assay; format: cell-based; conditions: S1P2 CRE-bla CHOK1, without Forskolin; read-out: S1P2 agonist value (EC50)
T2 construct: expressed in transfected cells; host or cells: CRE-bla CHOK1
Method: as §1, §2

T2 sequence (O95136 whole entry, species assumed): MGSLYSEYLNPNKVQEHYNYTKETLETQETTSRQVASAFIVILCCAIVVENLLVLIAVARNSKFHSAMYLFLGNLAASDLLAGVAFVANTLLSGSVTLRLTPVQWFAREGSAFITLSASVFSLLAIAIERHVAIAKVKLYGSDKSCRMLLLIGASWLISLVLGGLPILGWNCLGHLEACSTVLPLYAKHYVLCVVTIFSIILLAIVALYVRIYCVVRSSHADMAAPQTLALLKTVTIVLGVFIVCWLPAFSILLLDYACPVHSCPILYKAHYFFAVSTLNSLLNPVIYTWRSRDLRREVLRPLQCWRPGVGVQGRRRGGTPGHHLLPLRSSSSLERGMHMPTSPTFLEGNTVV

SMILES | EC50 (S1P4) [µM] | bioavailability ([1]; rat, whole blood) [%] | EC50 (S1P2) [µM] | Rat - Oral bioavailability Solution [1] [%]
CC(C)Oc1ccc(-c2nc(-c3cccc4c3CC[C@H]4N)no2)cc1C#N [Compound 49, (R)-5-(3-(1-amino-2,3-dihydro-1H-inden-4-yl)-1,2,4-oxadiazol-5-yl)-2-isopropoxy-benzonitrile hydrochloride] | 9.03 | 93 | 1.08 | –
CC(C)Oc1ccc(-c2nc(-c3cccc4c3CC[C@@H]4N)no2)cc1C#N [Compound 50, (S)-5-(3-(1-amino-2,3-dihydro-1H-inden-4-yl)-1,2,4-oxadiazol-5-yl)-2-isopropoxy-benzonitrile] | 7.87 | – | 7.72 | 91
CC(C)Oc1ccc(-c2nc(-c3cccc4c3CC[C@H]4NCCO)no2)cc1C#N [Compound 85, (R)-5-(3-(1-(2-hydroxyethylamino)-2,3-dihydro-1H-inden-4-yl)-1,2,4-oxadiazol-5-yl)-2-isopropoxybenzonitrile] | 1.61 | – | 5.69 | 69
CC(C)Oc1ccc(-c2nc(-c3cccc4c3CC[C@H]4NCC(=O)N(C)C)no2)cc1C#N [Compound 90, (R)-2-(4-(5-(3-cyano-4-isopropoxyphenyl)-1,2,4-oxadiazol-3-yl)-2,3-dihydro-1H-inden-1-ylamino)-N,N-dimethylacetamide hydrochloride] | > 10 | – | 6.66 | –
CC(C)Oc1ccc(-c2nc(-c3cccc4c3CC[C@@H]4NCC(=O)N(C)C)no2)cc1C#N [Compound 91, (S)-2-(4-(5-(3-cyano-4-isopropoxyphenyl)-1,2,4-oxadiazol-3-yl)-2,3-dihydro-1H-inden-1-ylamino)-N,N-dimethylacetamide] | > 10 | – | > 10 | –
